Experimental findings from US6518306B1, “1,4-substitued 4,4-diaryl cyclohexanes” (SmithKline Beecham Corporation, priority 1999, dated 2003) are described below.

The assay concerns TNF. As to the kind of experiment: Endotoxic shock models, in vivo TNF activity. The following applies: endotoxic shock model; serum TNF after endotoxin injection. The source says: Two models of endotoxic shock have been utilized to determine in vivo TNF activity for the compounds of Formula (I) and (II). The protocol used in these models is described in Badger et al., EPO published Application 0 411 754 A2, Feb. 6, 1991, and in Hanna. WO 90/15534, Dec. 27, 1990.

Molecules are shown by their SMILES.

In the case of `COc1ccc(C=O)cc1OC1CCCC1` [Example 1, 3-Cyclopentyloxy-4-methoxybenzaldehyde], the “in vivo response in reducing serum levels of TNF induced by the injection of endotoxin” value is recorded as “positive in vivo response”.
